According to publication PMC13198257, “An aerosolized dual-action autotaxin inhibitor-PPARγ agonist for the treatment of pulmonary fibrosis” (Cell Reports Medicine, 2026):

System: lung gene expression
Test: RNA sequencing of lung tissue (BLM/EL244 vs BLM)
Type: in vivo, mouse
Conditions: lung tissue, BLM/EL244 vs BLM
Description: RNA quality was assessed using an Agilent TapeStation 4150 with the High Sensitivity […] ScreenTape (Agilent), according to the manufacturer’s protocols. For library preparation, the QuantSeq 3’mRNA-Seq Library Prep Kit (Lexogen) was used according to manufacturer’s instructions. Briefly, 500 ng of RNA from each sample was used for first-strand synthesis, followed by RNA template removal, and second-strand synthesis initiated by random primers. In-line barcodes were introduced at this step, and this was followed by magnetic bead-based purification. The resulting libraries were amplified for 15 cycles and re-purified, with quantity and quality assessed on a Qubit 4 Fluorometer with the Invitrogen Qubit dsDNA HS Assay and an Agilent Tapestation 4150 with the High Sensitivity D1000 assay kit, respectively. The quantified libraries were pooled equimolarly; 50ng of total library mix was used for Adapter Conversion PCR Amplification using the Universal Library Conversion Kit (App-A), Version: V1.0 (MGI Tech Co., Ltd.), according to the manufacturer’s instructions.
The quantity and quality of the purified adapter conversion PCR (AC-PCR) product were evaluated on a Qubit 4 Fluorometer with the Invitrogen Qubit dsDNA HS Assay and on an Agilent Tapestation 4150 with the High Sensitivity D1000 assay kit, respectively. This was followed by DNA denaturation, Single-Strand Circularisation, Enzymatic Digestion, Enzymatic Digestion Product Cleanup and Quality Control steps on 1 pmol of AC-PCR product, according to the Universal Library Conversion Kit (App-A) User Manual (Version: A3).
Finally, 60 fmol of ssCirDNA were used for DNB preparation and sequencing on a DNBSEQ-G400 platform at the BSRC Alexander Fleming Genomics Facility, using a G400 App-A FCS SE100 High-throughput Sequencing Set (MGI Tech Co., Ltd.), according to the manufacturer’s instructions.
Alignment of the FASTQ files was performed against the mouse genome build mm10 using a custom Bash script.[143] Read counting on the 3′ UTRs and differential expression analysis were conducted using the metaseqR2 bioconductor package.[144] Genes corresponding to the following biotypes were excluded: polymorphic_pseudogene, processed_transcript, pseudogene, IG_V_pseudogene, misc_RNA, IG_C_gene, IG_J_gene, IG_D_gene, IG_LV_gene, TR_V_gene, TR_V_pseudogene, TEC, and processed_pseudogene. Gene counts were normalized with DESEQ[145] through metaseqR2. Genes with more than 10 counts in at least 50% of the samples were kept for further processing. For differential expression analysis, the PANDORA algorithm[146] was used to estimate a meta p-value integrating the results from the DESEQ, DESEQ2,[147] edgeR,[148] limma,[149] NBPSeq,[150] and NOISeq[151] algorithms. All additional parameters were set to default values.
Pathway enrichment analysis was performed for the Gene Ontology Biological process (BP) and Molecular Function (MF) terms through GeneCodis 4.[152] The volcano plots, scatterplots, Venn diagrams, and dot plots were generated using the ggplot2 Bioconductor package.

O=C1NC(=O)C(Cc2ccc(OCCC3CCN(C(=O)OCc4cc(Cl)cc(Cl)c4)CC3)cc2)S1 (stereo not shown) [EL244, 3,5-dichlorobenzyl 4-(2-(4-((2,4-dioxothiazolidin-5-yl)methyl)phenoxy)ethyl)piperidine-1-carboxylate]
log2 nFC Hells: -1.30
log2 nFC Il18bp: -0.95
log2 nFC Ildr2: -1.32
log2 nFC Itm2a: -1.25
log2 nFC Kcnn4: -1.27
log2 nFC Kdelr3: -1.25
log2 nFC Kif23: -1.20
log2 nFC Klhdc8a: -1.02
log2 nFC Kntc1: -1.39
log2 nFC Lair1: -0.92
log2 nFC Lat2: -1.10
log2 nFC Lcn2: -0.95
log2 nFC Lgals1: -1.12
log2 nFC Lgmn: -1.09
log2 nFC Lilrb4a: -0.89
log2 nFC Lmnb1: -0.91
log2 nFC Loxl2: -0.91
log2 nFC Lrg1: -0.89
log2 nFC Lum: -1.32
log2 nFC Mad2l1: -0.97
log2 nFC Mafb: -0.92
log2 nFC Mark1: -1.23
log2 nFC Mcm5: -1.33
log2 nFC Mdk: -1.34
log2 nFC Mfap5: -1.12
log2 nFC Mfrp: -0.87
log2 nFC Mgp: -1.03
log2 nFC Mir692-1: -1.18
log2 nFC Mmp14: -1.31
log2 nFC Ms4a6c: -0.91
log2 nFC Ms4a6d: -0.93
log2 nFC Ncapd2: -1.29
log2 nFC Ndnf: -0.87
log2 nFC Nnat: -1.34
log2 nFC Nrcam: -1.26
log2 nFC Nrep: -1.26
log2 nFC P2ry6: -0.93
log2 nFC Paox: -0.92
log2 nFC Pcdh7: -1.03
log2 nFC Pdlim4: -1.24
log2 nFC Plk4: -1.31
log2 nFC Polh: -0.87
log2 nFC Ppic: -1.10
log2 nFC Prdx4: -0.94
log2 nFC Psat1: -0.98
log2 nFC Psrc1: -1.26
log2 nFC Pth1r: -1.40
log2 nFC Racgap1: -1.21
log2 nFC Rcc1: -0.92
log2 nFC Rgs4: -1.23
log2 nFC Rgs5: -1.00
log2 nFC Rhof: -1.02
log2 nFC S100a4: -1.26
log2 nFC S100a14: -1.28
log2 nFC Scn3b: -0.91
log2 nFC Serpina3g: -1.31
log2 nFC Serpina3n: -1.22
log2 nFC Serpine1: -0.98
log2 nFC Serpine2: -0.87
log2 nFC Serpinh1: -0.87
log2 nFC Sertad4: -1.35
log2 nFC Sfn: -1.19
log2 nFC Sh2b2: -1.23
log2 nFC Slamf8: -1.24
log2 nFC Smc2: -0.98
log2 nFC Snai1: -0.97
log2 nFC Spc24: -1.13
log2 nFC St8sia6: -1.04
log2 nFC Tacc3: -1.27
log2 nFC Tiam1: -1.04
log2 nFC Tlr2: -1.04
log2 nFC Tnfaip8l1: -1.08
log2 nFC Tnfrsf11a: -1.12
log2 nFC Tns4: -1.20
log2 nFC Traf4: -1.10
log2 nFC Tubb2b: -1.19
log2 nFC Tyms: -1.02
log2 nFC Ulbp1: -1.06
log2 nFC Vcan: -1.21
log2 nFC Wfdc17: -1.30
nFC 1500009L16Rik: 0.43
nFC 2200002D01Rik: 0.54
nFC AA467197: 0.38
nFC Adamts2: 0.50
nFC Areg: 0.49
nFC Arhgap11a: 0.46
nFC Armcx4: 0.40
nFC Asf1b: 0.45
nFC Bcl2a1b: 0.45
nFC Bcl2a1d: 0.41
nFC Bub1b: 0.44
nFC C1qtnf5: 0.55
nFC C1qtnf6: 0.38
nFC Ccdc8: 0.46
nFC Ccl9: 0.39
nFC Ccl17: 0.52
nFC Cd68: 0.50
nFC Cd72: 0.50
nFC Cd248: 0.42
nFC Cd300c2: 0.54
nFC Cdca2: 0.40
nFC Cenpa: 0.40
nFC Cenpw: 0.40
nFC Cercam: 0.39
nFC Ch25h: 0.53
nFC Cilp: 0.38
nFC Clcn5: 0.53
nFC Clec4a2: 0.42
nFC Clec4n: 0.38
nFC Clec5a: 0.45
nFC Clec11a: 0.50
nFC Clec12a: 0.53
nFC Col1a2: 0.38
nFC Col8a1: 0.44
nFC Col12a1: 0.54
